Data reported in ChEMBL document CHEMBL1146827, “Synthesis and evaluation as sialidase inhibitors of xylo-configured cyclohexenephosphonates carrying glycerol side-chain mimics” (Bioorg Med Chem Lett, 2004).

Columns and labels:
[1] = Compound was tested for inhibitory activity against sialidase from Vibrio cholerae
[2] = Compound was tested for inhibitory activity against sialidase from Salmonella Typhimurium; parameters: species or system Salmonella enterica subsp. enterica serovar Typhimurium
[3] = Compound was tested for inhibitory activity against sialidase from Clostridium perfringens; n.a. = not active

Structure (SMILES) | IC50 [1] [µM] | IC50 [2] [µM] | IC50 [3]
C=CCO[C@@H]1CC(P(=O)(O)O)=C[C@H](O)[C@H]1NC(C)=O.CCN(CC)CC.CCN(CC)CC | 1500 | < 2000 | Not Active
CC(=O)N[C@@H]1[C@@H](O)C=C(P(=O)(O)O)C[C@H]1OCC(O)CO.N.N (stereo partly specified) |  | > 4000 | Not Active
CC(=O)N[C@@H]1[C@H](O)C=C(P(=O)(O)O)C[C@H]1OCCO.N.N | 1600 | 1800 | Not Active
CC(=O)N[C@H]1[C@H](O)CC(P(=O)(O)O)=C[C@@H]1O.N.N | 1800 | 1000 | Not Active
